Results from ChEMBL document CHEMBL1201862, “PubChem BioAssay data set” (2004).
Active and inactive are the calls of the source.

Tests used:
[1] = biological target: Tyrosyl-DNA phosphodiesterase 2 (Homo sapiens, UniProt O95551); assay: potency against TDP2 phosphodiesterase activity – biochemical, epi absorbance, IC50, dose response (AID 743297)
[2] = fluconazole-exposed Candida albicans growth modulators – fluorescence, retest, confirmation (AID 2467); format: functional, cell-based
cells = format: functional, cell-based
Exodeoxyribonuclease V = biological target: T1, Exodeoxyribonuclease V (Escherichia coli (strain K12), UniProt P04993+P07648+P08394); assay: RecBCD inhibition via phage-restricted bacterial growth – absorbance, V66 E. coli, mutant T4 phage, counter-screen for AddAB inhibitor project, dose response (AID 492957); format: functional, cell-based, Escherichia coli str. K-12 substr. MG1655
T1 sequence (P04993 whole entry): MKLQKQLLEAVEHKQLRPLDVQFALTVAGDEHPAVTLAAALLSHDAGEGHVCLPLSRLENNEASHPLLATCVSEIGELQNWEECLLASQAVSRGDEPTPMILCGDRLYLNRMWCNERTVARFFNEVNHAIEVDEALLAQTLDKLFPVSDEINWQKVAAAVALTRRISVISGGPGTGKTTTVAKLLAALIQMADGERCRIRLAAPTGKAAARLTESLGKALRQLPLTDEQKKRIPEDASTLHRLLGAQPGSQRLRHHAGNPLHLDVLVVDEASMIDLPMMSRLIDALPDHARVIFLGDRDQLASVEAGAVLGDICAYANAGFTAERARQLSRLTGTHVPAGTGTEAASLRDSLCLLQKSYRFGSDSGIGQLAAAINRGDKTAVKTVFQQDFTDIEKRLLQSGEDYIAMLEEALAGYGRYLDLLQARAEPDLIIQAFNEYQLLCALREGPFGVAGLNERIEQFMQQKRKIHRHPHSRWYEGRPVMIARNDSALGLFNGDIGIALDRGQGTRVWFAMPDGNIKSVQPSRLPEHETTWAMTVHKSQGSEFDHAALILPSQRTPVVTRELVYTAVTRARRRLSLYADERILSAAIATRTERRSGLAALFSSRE
T1 sequence (P07648 whole entry): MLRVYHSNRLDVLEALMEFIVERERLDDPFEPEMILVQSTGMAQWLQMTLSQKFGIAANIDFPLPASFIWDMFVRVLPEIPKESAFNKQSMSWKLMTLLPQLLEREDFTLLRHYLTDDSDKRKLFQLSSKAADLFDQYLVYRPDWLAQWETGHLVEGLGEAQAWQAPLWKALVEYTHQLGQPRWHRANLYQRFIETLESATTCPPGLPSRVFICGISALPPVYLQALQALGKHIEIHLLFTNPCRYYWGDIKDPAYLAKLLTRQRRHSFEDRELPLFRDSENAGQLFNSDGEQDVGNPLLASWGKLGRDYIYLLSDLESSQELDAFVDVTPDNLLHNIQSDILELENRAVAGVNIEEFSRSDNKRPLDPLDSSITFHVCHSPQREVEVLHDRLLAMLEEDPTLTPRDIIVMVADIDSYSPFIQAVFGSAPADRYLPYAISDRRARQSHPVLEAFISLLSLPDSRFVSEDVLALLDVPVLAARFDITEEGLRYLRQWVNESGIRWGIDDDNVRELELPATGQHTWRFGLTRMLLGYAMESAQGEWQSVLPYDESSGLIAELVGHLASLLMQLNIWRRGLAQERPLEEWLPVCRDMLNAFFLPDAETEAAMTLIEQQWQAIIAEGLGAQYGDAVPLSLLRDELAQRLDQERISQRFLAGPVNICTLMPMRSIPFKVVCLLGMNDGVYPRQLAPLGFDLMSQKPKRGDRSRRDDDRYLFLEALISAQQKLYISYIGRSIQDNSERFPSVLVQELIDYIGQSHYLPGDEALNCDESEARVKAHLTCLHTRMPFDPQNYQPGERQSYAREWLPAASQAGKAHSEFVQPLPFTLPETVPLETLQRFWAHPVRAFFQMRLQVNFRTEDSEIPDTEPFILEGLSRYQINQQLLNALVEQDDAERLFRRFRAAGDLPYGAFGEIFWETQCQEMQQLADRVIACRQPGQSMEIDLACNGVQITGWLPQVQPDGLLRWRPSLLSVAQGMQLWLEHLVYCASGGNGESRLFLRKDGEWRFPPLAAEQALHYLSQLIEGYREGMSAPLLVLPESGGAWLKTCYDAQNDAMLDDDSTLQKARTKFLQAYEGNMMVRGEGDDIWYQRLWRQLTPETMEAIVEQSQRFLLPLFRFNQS
T1 sequence (P08394 whole entry): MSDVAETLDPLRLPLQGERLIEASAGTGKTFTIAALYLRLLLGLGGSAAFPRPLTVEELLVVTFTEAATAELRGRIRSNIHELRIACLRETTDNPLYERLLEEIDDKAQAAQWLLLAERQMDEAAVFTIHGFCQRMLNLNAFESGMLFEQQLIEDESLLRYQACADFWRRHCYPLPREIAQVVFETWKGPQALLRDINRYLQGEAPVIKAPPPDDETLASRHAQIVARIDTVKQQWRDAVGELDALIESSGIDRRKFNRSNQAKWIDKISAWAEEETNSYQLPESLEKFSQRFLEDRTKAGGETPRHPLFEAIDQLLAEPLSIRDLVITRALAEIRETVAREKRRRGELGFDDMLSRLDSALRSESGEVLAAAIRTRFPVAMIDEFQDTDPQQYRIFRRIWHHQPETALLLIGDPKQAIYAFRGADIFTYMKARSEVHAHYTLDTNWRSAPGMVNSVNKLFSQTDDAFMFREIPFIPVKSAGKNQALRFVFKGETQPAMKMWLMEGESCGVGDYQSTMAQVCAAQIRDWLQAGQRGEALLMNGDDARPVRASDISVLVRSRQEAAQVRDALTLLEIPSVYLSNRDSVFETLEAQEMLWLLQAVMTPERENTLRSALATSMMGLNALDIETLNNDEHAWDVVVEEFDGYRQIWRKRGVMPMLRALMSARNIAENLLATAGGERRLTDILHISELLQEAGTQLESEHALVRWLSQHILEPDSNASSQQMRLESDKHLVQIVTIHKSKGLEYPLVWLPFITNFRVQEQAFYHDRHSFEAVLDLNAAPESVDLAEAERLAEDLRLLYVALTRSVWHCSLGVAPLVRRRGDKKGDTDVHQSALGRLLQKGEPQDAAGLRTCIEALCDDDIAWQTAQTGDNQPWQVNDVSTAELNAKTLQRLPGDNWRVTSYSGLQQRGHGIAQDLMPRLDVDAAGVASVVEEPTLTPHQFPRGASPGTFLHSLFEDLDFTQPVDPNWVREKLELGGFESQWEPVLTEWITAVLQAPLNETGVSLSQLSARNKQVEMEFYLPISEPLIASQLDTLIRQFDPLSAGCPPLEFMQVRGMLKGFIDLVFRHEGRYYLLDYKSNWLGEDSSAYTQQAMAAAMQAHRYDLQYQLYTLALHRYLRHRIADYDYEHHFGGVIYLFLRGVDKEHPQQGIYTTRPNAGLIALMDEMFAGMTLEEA

INS1 = assay: INS-1E survival protection against cytokine death – cell-based, luminescence, retest, dose response (AID 449756); format: functional; conditions: Rattus norvegicus;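 further: cell death triggered by IL-1 beta plus TNF-alpha plus IFN-gamma mixture; protective hits raise ATP signal compared with cytokine alone wells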

Tyrosyl-DNA phosphodiesterase 2, sequence (O95551 whole entry): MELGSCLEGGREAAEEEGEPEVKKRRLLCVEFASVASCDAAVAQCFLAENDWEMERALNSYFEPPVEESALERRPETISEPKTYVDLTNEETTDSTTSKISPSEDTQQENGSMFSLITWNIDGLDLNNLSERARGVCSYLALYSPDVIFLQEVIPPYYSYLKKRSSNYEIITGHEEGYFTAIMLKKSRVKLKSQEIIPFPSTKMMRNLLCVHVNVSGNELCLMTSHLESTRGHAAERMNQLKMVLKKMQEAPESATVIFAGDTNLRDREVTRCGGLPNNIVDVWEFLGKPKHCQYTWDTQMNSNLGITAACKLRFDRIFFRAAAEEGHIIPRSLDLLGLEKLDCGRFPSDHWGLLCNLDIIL

SMILES	IC50 [1]	EC50 [2]	EC50 (cells)	IC50 (Exodeoxyribonuclease V)	AC50 (INS1)
CC(C)N(C(=O)Nc1ccc2nsnc2c1)C(C)C	8.96 µM (active)	–	–	–	–
NS(=O)(=O)c1ccc(NC2=CC(=O)C(=O)c3ccccc32)cc1	5.59 µM (active)	–	–	–	–
O=C(N/N=C/c1ccc(O)cc1O)c1ccc(CN2C(=O)c3cccc4cccc2c34)cc1	–	0.384 µM (active)	> 350 µM (not active)	> 119 µM (inactive)	0.768 µM (active)
CCC(=O)NC(c1ccccc1OC)c1ccc2cccnc2c1O (stereo not given)	–	1.48 µM (active)	> 350 µM (not active)	> 119 µM (inactive)	1.17 µM (active)
